{"source": "patent US20100151039A1", "about": "“SKIN MOISTURIZING AGENT FOR ORAL INTAKE AND FUNCTIONAL FOODS AND DRINKS” (CALPIS CO., LTD., priority 2003, published 2010)", "key": {"[1]": {"system": "serine palmitoyl transferase (SPT) mRNA", "experiment": "Ability to promote synthesis of SPT: RT-PCR of SPT mRNA in normal human epidermic cells", "conditions": "0.63 v/v % in medium, 24 hours; relative value, control = 100, standardized to cyclophilin mRNA", "procedure": "(§1) A 35 mm culture dish was seeded with the epidermic cells at a cell concentration of 5×10^5 cells per dish, and subjected to culture for 24 hours.\n(§2) (2) After the culture, the cells were washed with PBS (−), and lysed with 500 μl, per dish of TRIzol reagent (trade name, manufactured by Gibco BRL). 100 μL per dish of chloroform was added and mixed thoroughly. The supernatant aqueous phase was recovered by centrifugation, and RNAs were precipitated with 2-propanol to obtain the total RNAs. The obtained total RNAs were washed with 75% cold ethanol, and dissolved in diethyl pyrocarbonate (DEPC)-treated water.\n(§3) (3) 1 μg of the RNAs dissolved in DEPC-treated water was subjected to RT-PCR using One step RT-PCR kit (trade name, manufactured by Qiagen) in accordance with its protocol under the conditions and with the primers shown in Table 2, to reverse transcript and amplify the cDNA corresponding to serine palmitoyl transferase (SPT) mRNA, filaggrin mRNA, or cyclophilin RNA.\n(§4) (4) After the reaction, the reaction product was fractionated by 1% agarose gel electrophoresis. The electrophoresis gel was stained with ethidium bromide, and photographed under UV irradiation on a transilluminator, to determine the band intensity.\nThe test was conducted twice."}, "filaggrin mRNA": {"system": "filaggrin mRNA", "experiment": "Ability to promote synthesis of filaggrin: RT-PCR of filaggrin mRNA in normal human epidermic cells", "conditions": "0.63 v/v % in medium, 24 hours; relative value, control = 100, standardized to cyclophilin mRNA", "procedure": "as §1, §2, §3, §4\nThe test was conducted twice."}}, "data": [{"compound": "CC(O)C(=O)O", "note": "(stereo not shown) [lactic acid]", "values": [{"measurement": "Effect on expression of SPT mRNA of normal human epidermic cells, 1st Test", "setting": "[1]", "value": 91}, {"measurement": "Effect on expression of SPT mRNA of normal human epidermic cells, 2nd Test", "setting": "[1]", "value": 111}, {"measurement": "Effect on expression of filaggrin mRNA of normal epidermic cells, 1st Test", "setting": "filaggrin mRNA", "value": 15}, {"measurement": "Effect on expression of filaggrin mRNA of normal epidermic cells, 2nd Test", "setting": "filaggrin mRNA", "value": 132}]}]}
